Results taken from US10858335B2 (Rigel Pharmaceuticals, Inc., priority 2014, dated 2020).
Structures can show the parent of a compound that is named as a salt.

Each compound was assayed on GDF8 signaling (p-SMAD-3 (Ser423/425)) (assay: AlphaScreen SureFire SMAD3 (p-Ser423/425) assay, GDF8-stimulated cells (GDF pSMAD)). Settings: Mus musculus, MPC-11, GDF8-stimulated pSMAD3, MPC11; tested as the salt form given; read-out: GDF pSMAD (MPC11) (μM), inhibition of GDF8 signaling.
Format: cell-based

Q: How did the IC50 turn out when Nc1ncnc2ccc(-c3cccnc3-c3cc(OC(F)F)ccc3Cl)cc12 [compound 1017, 6-(2-(2-chloro-5-(difluoromethoxy)phenyl)pyridin-3-yl)quinazolin-4-amine] was run?
A: Its IC50 is 2.08 µM.

Q: O=C(O)CNc1ncnc2ccc(-c3cccnc3-c3cc(Cl)ccc3F)cc12 [compound 1031, (6-(2-(5-chloro-2-fluorophenyl)pyridin-3-yl)quinazolin-4-yl)glycine] was tested. Which IC50 did it give?
A: Its IC50 is 15.8 µM.

Q: How did the IC50 turn out when Cc1cc(-c2ncccc2-c2ccc3ncnc(NC(C)C(N)=O)c3c2)ccc1F (stereo not shown) [compound 1027, 2-((6-(2-(4-fluoro-3-methylphenyl)pyridin-3-yl)quinazolin-4-yl)amino)propanamide] was run?
A: The IC50 was 10.8 µM.

Q: With Cc1cc(-c2ncccc2-c2ccc3ncnc(N)c3c2)c(C)cc1F [compound 1002, 6-(2-(4-fluoro-2,5-dimethylphenyl)pyridin-3-yl)quinazolin-4-amine] as the compound, how does the IC50 read?
A: The IC50 was 1.42 µM.

Q: Which IC50 does the source give for Nc1ncnc2ccc(-c3cccnc3-c3ccccc3F)cc12 [compound 1003, 6-(2-(2-fluorophenyl)pyridin-3-yl)quinazolin-4-amine] here?
A: The IC50 was 7.27 µM.

Same assay, conditions: Mus musculus, MPC-11, MPC11; GDF8-stimulated; p-SMAD3 AlphaScreen; read-out: GDF pSMAD (MPC11) (inhibition of GDF8 signaling)

Q: For Cn1cnc2ccc(-c3cccnc3-c3ccc(F)c(Cl)c3F)cc21 [compound 967, 6-(2-(3-Chloro-2,4-difluorophenyl)pyridin-3-yl)-1-methyl-1H-benzo[d]imidazole], which IC50 is on record?
A: The IC50 was 1.44 µM.

Q: Nc1ncnc2ccc(-c3cccnc3-c3cccc(F)c3Cl)cc12 [compound 503, 6-(2-(2-Chloro-3-fluorophenyl)pyridin-3-yl)quinazolin-4-amine] was tested. Which IC50 did it give?
A: Its IC50 is 4.82 µM.

Q: For COc1ccc(NC(=O)c2cnc3ccc(-c4cccnc4-c4ccc(F)c(C)c4)cn23)cc1OC [compound 582, N-(3,4-Dimethoxyphenyl)-6-(2-(4-fluoro-3-methylphenyl)pyridin-3-yl)imidazo[1,2-a]pyridine-3-carboxamide], which IC50 is on record?
A: Its IC50 is 0.494 µM.

Q: With Cc1cc(-c2ncccc2-c2ccnc(Nc3ccc(S(N)(=O)=O)cc3)n2)ccc1F [compound 906, 4-((4-(2-(4-Fluoro-3-methylphenyl)pyridin-3-yl)pyrimidin-2-yl)amino)benzenesulfonamide] as the compound, how does the IC50 read?
A: The IC50 was 3.34 µM.

Q: With CCc1ncc(CNc2cnc(-c3ccc(F)c(C)c3)c(-c3ccc4ncsc4c3)c2)[nH]1 [compound 323, 5-(Benzo[d]thiazol-6-yl)-N-((2-ethyl-1H-imidazol-5-yl)methyl)-6-(4-fluoro-3-methylphenyl)pyridin-3-amine] as the compound, how does the IC50 read?
A: Its IC50 is 0.327 µM.

Q: How did the IC50 turn out when O=c1cnc2ccc(-c3cccnc3-c3ccc(F)c(Cl)c3)cc2[nH]1 [compound 890, 7-(2-(3-Chloro-4-fluorophenyl)pyridin-3-yl)quinoxalin-2(1H)-one] was run?
A: Its IC50 is 1.3 µM.

Q: Cc1cc(-c2ncccc2-c2ccc3cnc(C(=O)NCCN4CCCC4)n3c2)ccc1F [compound 272, 6-(2-(4-Fluoro-3-methylphenyl)pyridin-3-yl)-N-(2-(pyrrolidin-1-yl)ethyl)imidazo[1,5-a]pyridine-3-carboxamide] was tested. Which IC50 did it give?
A: The IC50 was 3.4 µM.

Q: Cc1cc(-c2ncccc2-c2ccc3ncc(=O)[nH]c3c2)ccc1F [compound 891, 7-(2-(4-Fluoro-3-methylphenyl)pyridin-3-yl)quinoxalin-2(1H)-one] was tested. Which IC50 did it give?
A: Its IC50 is 0.632 µM.

Q: Which IC50 does the source give for Cc1cccc(-c2ncccc2-c2ccn3cncc3c2)c1 [compound 595, 7-(2-(m-Tolyl)pyridin-3-yl)imidazo[1,5-a]pyridine] here?
A: Its IC50 is 1.16 µM.

Q: With Clc1ccc(Cl)c(-c2ncccc2-c2ccc3ncnn3c2)c1 [compound 771, 6-(2-(2,5-Dichlorophenyl)pyridin-3-yl)-[1,2,4]triazolo[1,5-a]pyridine] as the compound, how does the IC50 read?
A: Its IC50 is 1.11 µM.

Q: With N#Cc1cnc2ccc(-c3cccnc3-c3ccc(F)c(F)c3)cn12 [compound 622, 6-(2-(3,4-Difluorophenyl)pyridin-3-yl)imidazo[1,2-a]pyridine-3-carbonitrile] as the compound, how does the IC50 read?
A: Its IC50 is 3.63 µM.

Q: Which IC50 does the source give for COc1cccc(-c2ncccc2-c2ccc3ncc(C#N)n3c2)c1 [compound 626, 6-(2-(3-Methoxyphenyl)pyridin-3-yl)imidazo[1,2-a]pyridine-3-carbonitrile] here?
A: The IC50 was 0.346 µM.

Q: With Cc1cc(-c2ncccc2-c2ccc3ncc(C(=O)OC[C@@H](N)Cc4c[nH]c5ccccc45)n3c2)ccc1F [compound 615, (S)-2-Amino-3-(1H-indol-3-yl)propyl 6-(2-(4-fluoro-3-methylphenyl)pyridin-3-yl)imidazo[1,2-a]pyridine-3-carboxylate formic acid salt] as the compound, how does the IC50 read?
A: The IC50 was 2.13 µM.

Q: With Fc1cnc(-c2cc(Cl)c(F)cc2F)c(-c2ccn3ncnc3c2)c1 [compound 861, 7-(2-(5-Chloro-2,4-difluorophenyl)-5-fluoropyridin-3-yl)-[1,2,4]triazolo[1,5-a]pyridine] as the compound, how does the IC50 read?
A: Its IC50 is 4.01 µM.

Q: Which IC50 does the source give for Nc1ncnc2ccc(-c3cccnc3-c3cc(F)cc(Cl)c3)cc12 [compound 460, 6-(2-(3-Chloro-5-fluorophenyl)pyridin-3-yl)quinazolin-4-amine] here?
A: Its IC50 is 0.129 µM.

Q: For Cc1cc(-c2ncccc2-c2ccc3ncncc3c2)ccc1F [compound 363, 6-(2-(4-Fluoro-3-methylphenyl)pyridin-3-yl)quinazoline], which IC50 is on record?
A: Its IC50 is 0.903 µM.

Q: For Cc1ccc(Oc2ncnc3ccc(-c4cccnc4-c4ccc(F)c(C)c4)cc23)cn1 [compound 432, 6-(2-(4-Fluoro-3-methylphenyl)pyridin-3-yl)-4-((6-methylpyridin-3-yl)oxy)quinazoline], which IC50 is on record?
A: The IC50 was 0.513 µM.

Q: For N#Cc1cc(-c2ncccc2-c2ccc3ncnc(N)c3c2)ccc1F [compound 477, 5-(3-(4-Aminoquinazolin-6-yl)pyridin-2-yl)-2-fluorobenzonitrile], which IC50 is on record?
A: Its IC50 is 0.492 µM.

Q: For Cc1cccc(-c2ncccc2-c2ccc3ncc(CN4CCOCC4)n3c2)c1 [compound 570, 4-((6-(2-(m-Tolyl)pyridin-3-yl)imidazo[1,2-a]pyridin-3-yl)methyl)morpholine], which IC50 is on record?
A: Its IC50 is 5.9 µM.

Q: Which IC50 does the source give for Cc1ccccc1-c1ncccc1-c1ccc2ncnc(N)c2c1 [compound 462, 6-(2-(o-Tolyl)pyridin-3-yl)quinazolin-4-amine] here?
A: Its IC50 is 18.4 µM.

Q: N#Cc1cnc2ccc(-c3cccnc3-c3ccc(F)c(C4CC4)c3)cn12 [compound 223, 6-(2-(3-Cyclopropyl-4-fluorophenyl)pyridin-3-yl)imidazo[1,2-a]pyridine-3-carbonitrile] was tested. Which IC50 did it give?
A: Its IC50 is 0.707 µM.

Q: With c1cc(-c2ncccc2-c2ccc3ncsc3c2)cc(C2CC2)c1 [Compound 194, 6-(2-(3-Cyclopropylphenyl)pyridin-3-yl)benzo[d]thiazole] as the compound, how does the IC50 read?
A: Its IC50 is 0.149 µM.

Q: Cc1cc(-c2ncccc2-c2ccc3ncn(CCCO)c3c2)ccc1F [Compound 41, 3-(6-(2-(4-Fluoro-3-methylphenyl)pyridin-3-yl)-1H-benzo[d]imidazol-1-yl)propan-1-ol] was tested. Which IC50 did it give?
A: The IC50 was 3.14 µM.

Q: With N#Cc1cnc2ccc(-c3cccnc3-c3cc(F)c(F)cc3F)cn12 [compound 695, 6-(2-(2,4,5-Trifluorophenyl)pyridin-3-yl)imidazo[1,2-a]pyridine-3-carbonitrile] as the compound, how does the IC50 read?
A: The IC50 was 1.52 µM.

Q: For COc1cnc(-c2ccc(F)c(Cl)c2)c(-c2ccn3ncnc3c2)c1 [compound 856, 7-(2-(3-Chloro-4-fluorophenyl)-5-methoxypyridin-3-yl)-[1,2,4]triazolo[1,5-a]pyridine], which IC50 is on record?
A: Its IC50 is 5.58 µM.

Q: N#Cc1cnc2ccc(-c3cccnc3-c3ccc(F)c(Cl)c3)nn12 [compound 948, 6-(2-(3-Chloro-4-fluorophenyl)pyridin-3-yl)imidazo[1,2-b]pyridazine-3-carbonitrile] was tested. Which IC50 did it give?
A: Its IC50 is 0.951 µM.

Q: Fc1ccc(-c2ncccc2-c2ccc3ncccc3n2)cc1C1CC1 [compound 216, 2-(2-(3-cyclopropyl-4-fluorophenyl)pyridin-3-yl)-1,5-naphthyridine] was tested. Which IC50 did it give?
A: The IC50 was 0.737 µM.

Q: c1cc(-c2ncccc2-c2ccc3nccnc3c2)cc(C2CC2)c1 [compound 541, 6-(2-(3-Cyclopropylphenyl)pyridin-3-yl)quinoxaline] was tested. Which IC50 did it give?
A: Its IC50 is 0.25 µM.

Q: How did the IC50 turn out when Cc1cc(-c2ncccc2-c2ccc3cnc(-c4cccc(N)c4)n3c2)ccc1F [compound 283, 3-(6-(2-(4-Fluoro-3-methylphenyl)pyridin-3-yl)imidazo[1,5-a]pyridin-3-yl)aniline] was run?
A: Its IC50 is 17.7 µM.

Q: Which IC50 does the source give for Cc1c(Cl)cccc1-c1ncccc1-c1ccc2ncnc(N)c2c1 [compound 464, 6-(2-(3-Chloro-2-methylphenyl)pyridin-3-yl)quinazolin-4-amine] here?
A: The IC50 was 3.96 µM.

Q: How did the IC50 turn out when OCc1cc(-c2ncccc2-c2ccc3[nH]ncc3c2)ccc1F [Compound 89, (5-(3-(1H-Indazol-5-yl)pyridin-2-yl)-2-fluorophenyl)methanol] was run?
A: The IC50 was 2.55 µM.

Q: With Cc1cc(-c2ncccc2-c2ccc3ncc(CN4CCOCC4)n3c2)ccc1F [compound 569, 4-((6-(2-(4-Fluoro-3-methylphenyl)pyridin-3-yl)imidazo[1,2-a]pyridin-3-yl)methyl)morpholine] as the compound, how does the IC50 read?
A: The IC50 was 5.41 µM.

Q: How did the IC50 turn out when Cc1cccc(-c2ncccc2-c2ccn3ncnc3c2)c1 [compound 732, 7-(2-(m-Tolyl)pyridin-3-yl)-[1,2,4]triazolo[1,5-a]pyridine] was run?
A: Its IC50 is 0.258 µM.

Q: With Cn1cnc2ccc(-c3cccnc3-c3ccc(F)c(Cl)c3)cc2c1=O [compound 390, 6-(2-(3-Chloro-4-fluorophenyl)pyridin-3-yl)-3-methylquinazolin-4(3H)-one] as the compound, how does the IC50 read?
A: Its IC50 is 0.516 µM.

Q: How did the IC50 turn out when Nc1ncnc2ccc(-c3cccnc3-c3cccc(OC(F)(F)F)c3)cc12 [compound 452, 6-(2-(3-(Trifluoromethoxy)phenyl)pyridin-3-yl)quinazolin-4-amine] was run?
A: Its IC50 is 0.223 µM.

Q: How did the IC50 turn out when FC(F)(F)c1cccc(-c2ncccc2-c2ccn3ncnc3c2)c1 [compound 879, 7-(2-(3-(Trifluoromethyl)phenyl)pyridin-3-yl)-[1,2,4]triazolo[1,5-a]pyridine] was run?
A: Its IC50 is 1.48 µM.

Q: For Cc1cc(-c2ncc(NCc3ccc(C(N)=O)cc3)cc2-c2ccc3nccnc3c2)ccc1F [compound 307, 4-(((6-(4-Fluoro-3-methylphenyl)-5-(quinoxalin-6-yl)pyridin-3-yl)amino)methyl)benzamide], which IC50 is on record?
A: The IC50 was 2.22 µM.

Q: Which IC50 does the source give for COc1cccc(-c2ncc3cc(-c4cccnc4-c4ccc(F)c(C)c4)ccn23)c1 [compound 286, 7-(2-(4-Fluoro-3-methylphenyl)pyridin-3-yl)-3-(3-methoxyphenyl)imidazo[1,5-a]pyridine] here?
A: The IC50 was 12 µM.
